Data as given in ChEMBL document CHEMBL1201862, “PubChem BioAssay data set” (2004).
Values joined by “and” are separate entries in the source; they are usually repeats but may differ in a detail not shown here. Identical values can stand only once.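 Following 48 hours of exposure in 96-well plates, responses at five concentrations were used to interpolate endpoints linearly. GI50 marks 50% less growth.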 Active and inactive are the calls of the source. Cut-off read from the data, not from the text of the source: active = GI50 up to about 1.1 µM and inactive = higher. Residues, ends and D or L forms follow the SMILES beside them. *: point of attachment. Boc = CC(C)(C)OC(=O)*; OBn = c1ccc(CO*)cc1

Tests used:
Experiment in all cases: NCI anticancer screen, dose series, 48 h
A549 = tested on: A549
CAKI-1 = tested on: CAKI-1
COLO 205 = tested on: COLO 205
HL-60 = tested on: HL-60
HOP-62 = tested on: HOP-62
HT-29 = tested on: HT-29
MOLT-4 = tested on: MOLT-4
Malme-3M = tested on: Malme-3M
NCI-H226 = tested on: NCI-H226
NCI-H522 = tested on: NCI-H522
OVCAR-8 = tested on: OVCAR-8
RPMI-8226 = tested on: RPMI-8226
RXF 393 = tested on: RXF 393
SF-539 = tested on: SF-539
SK-MEL-28 = tested on: SK-MEL-28
SN12C = tested on: SN12C
SNB-19 = tested on: SNB-19
SR = tested on: SR
T47D = tested on: T47D
UO-31 = tested on: UO-31

Compound | GI50 (A549) | GI50 (CAKI-1) | GI50 (COLO 205) | GI50 (HL-60) | GI50 (HOP-62) | GI50 (HT-29) | GI50 (MOLT-4) | GI50 (Malme-3M) | GI50 (NCI-H226) | GI50 (NCI-H522) | GI50 (OVCAR-8) | GI50 (RPMI-8226) | GI50 (RXF 393) | GI50 (SF-539) | GI50 (SK-MEL-28) | GI50 (SN12C) | GI50 (SNB-19) | GI50 (SR) | GI50 (T47D) | GI50 (UO-31)
Cc1nc2ccc(Cl)cc2c2c1CCO2 | 63 µM (inactive) | 43.4 µM (inactive) | 83.9 µM (inactive) | 41.5 µM (inactive) | > 100 µM (inactive) | 95.1 µM (inactive) | 45.2 µM (inactive) | > 100 µM (inactive) | 94.4 µM (inactive) | > 100 µM (inactive) | 99.5 µM (inactive) | > 100 µM (inactive) | 24.4 µM (inactive) | 46.5 µM (inactive) | > 100 µM (inactive) | > 100 µM (inactive) | 60.4 µM (inactive) | > 100 µM (inactive) | 88.7 µM (inactive) | 37.1 µM (inactive)
CC(=O)CC(O)(C(F)(F)Cl)C(F)(F)Cl | > 10 µM (inactive) | > 10 µM (inactive) | > 10 µM (inactive) | > 10 µM (inactive) | > 10 µM (inactive) | > 10 µM (inactive) | > 10 µM (inactive) | > 10 µM (inactive) | > 10 µM (inactive) | > 10 µM (inactive) | > 10 µM (inactive) | > 10 µM (inactive) | > 10 µM (inactive) | > 10 µM (inactive) | > 10 µM (inactive) | > 10 µM (inactive) | > 10 µM (inactive) | > 10 µM (inactive) | > 10 µM (inactive) | > 10 µM (inactive)
CCOc1nc(N)nc(C)c1/N=N/c1ccc(Cl)cc1 | > 100 µM (inactive) | > 100 µM (inactive) | > 100 µM (inactive) | > 100 µM (inactive) | > 100 µM (inactive) | > 100 µM (inactive) | 10.7 µM (inactive) | 34.4 µM (inactive) | 20.6 µM (inactive) | 69.7 µM (inactive) | > 100 µM (inactive) | 25.9 µM (inactive) | > 100 µM (inactive) | 36.9 µM (inactive) | > 100 µM (inactive) | 14.1 µM (inactive) | > 100 µM (inactive) | 1.86 µM (inactive) | 73.8 µM (inactive) | 45 µM (inactive)
CC(C)NC(=O)OCc1c(COC(=O)NC(C)C)c(-c2ccc[n+](COC(=O)C(C)C)c2)n2c1CCC2 | > 91.4 µM (inactive) | 17.3 µM (inactive) | > 72.3 µM (inactive) | 16 µM (inactive) | > 63.5 µM (inactive) | 73.8 µM (inactive) | 13.6 µM (inactive) | > 63.5 µM (inactive) | > 100 µM (inactive) | 34.5 µM (inactive) | > 72.8 µM (inactive) | 55.2 µM (inactive) | 42.4 µM (inactive) | 31.8 µM (inactive) | > 100 µM (inactive) | 37.5 µM (inactive) | > 100 µM (inactive) | 8.53 µM (inactive) | > 81.3 µM (inactive) | 52.4 µM (inactive)
N#Cc1nc(C#N)c(N)[nH]1 | > 100 µM (inactive) | > 100 µM (inactive) | > 100 µM (inactive) | > 100 µM (inactive) | > 100 µM (inactive) | > 100 µM (inactive) | > 100 µM (inactive) | > 100 µM (inactive) | > 100 µM (inactive) | > 100 µM (inactive) | > 100 µM (inactive) | > 100 µM (inactive) | > 100 µM (inactive) | > 100 µM (inactive) | > 100 µM (inactive) | > 100 µM (inactive) | > 100 µM (inactive) | > 100 µM (inactive) | > 100 µM (inactive) | > 100 µM (inactive)
CN(C)CCn1c(=O)c2ccc(NCCNCCO)c3c(=O)c4cc(O)ccc4n(c1=O)c23 | 0.607 µM (active) | 0.938 µM (active) | 0.634 µM (active) | 1.47 µM (inactive) | 0.483 µM (active) | 0.665 µM (active) | 0.229 µM (active) | 2.42 µM (inactive) | 0.839 µM (active) | 0.281 µM (active) | 1.12 µM (inactive) | 1.18 µM (inactive) | 0.586 µM (active) | 0.367 µM (active) | 4.43 µM (inactive) | 0.308 µM (active) | 1.04 µM (active) | < 0.0352 µM (active) | 2.31 µM (inactive) | 3.05 µM (inactive)
CC(C)C(NC(=O)CNC(=O)C1CCCN1C(=O)C(NC(=O)OC(C)(C)C)C(C)C)C(=O)NCC(=O)OCc1ccccc1 (stereo not given) (Boc-VPGVG-OBn; configuration not given here) | > 100 µM (inactive) | > 100 µM (inactive) | > 100 µM (inactive) | > 100 µM (inactive) and 72.8 µM (inactive) | > 100 µM (inactive) | > 100 µM (inactive) | > 100 µM (inactive) | > 100 µM (inactive) | > 100 µM (inactive) | > 100 µM (inactive) | > 100 µM (inactive) | > 100 µM (inactive) | > 100 µM (inactive) | > 100 µM (inactive) | > 100 µM (inactive) | > 100 µM (inactive) | > 100 µM (inactive) | > 100 µM (inactive) | > 100 µM (inactive) | > 100 µM (inactive)
COc1cccc2c1cc([N+](=O)[O-])c1c(C(=O)O)cc3c(c12)OCO3 [ARISTOLOCHIC ACID] | 45.9 µM (inactive) | 27.2 µM (inactive) | 1.31 µM (inactive) | 23.1 µM (inactive) | 23.7 µM (inactive) | 0.889 µM (active) | 26.7 µM (inactive) | 46.8 µM (inactive) | 33.7 µM (inactive) | 28.1 µM (inactive) | 28.7 µM (inactive) | 24.7 µM (inactive) | 23.4 µM (inactive) | 24.9 µM (inactive) | 41.9 µM (inactive) | > 74.3 µM (inactive) | 37.5 µM (inactive) | 21.7 µM (inactive) | 50.1 µM (inactive) | 40.6 µM (inactive)
COC(=O)C1=C(C)NC(C)=C(C(=O)OCCCN2CCC(c3ccccc3)(c3ccccc3)CC2)[C@H]1c1cccc([N+](=O)[O-])c1 [NIGULDIPINE] | 1.79 µM (inactive) | 3.98 µM (inactive) | 1.57 µM (inactive) | 1.16 µM (inactive) | 4.6 µM (inactive) | 1.3 µM (inactive) | 1.95 µM (inactive) | 2.07 µM (inactive) | 3.25 µM (inactive) | 2.49 µM (inactive) | 1.95 µM (inactive) | 1.61 µM (inactive) | 1.86 µM (inactive) | 1.8 µM (inactive) | 1.88 µM (inactive) | 1.58 µM (inactive) | 1.7 µM (inactive) | 2.26 µM (inactive) | 11.5 µM (inactive) | 2 µM (inactive)
